Results: patent US20180353483A1, “PHARMACEUTICAL COMPOSITIONS AND METHODS FOR INDOLEAMINE, 2, 3-DIOXYGENASE INHIBITION AND INDICATIONS THEREFOR” (Incyte Corporation, priority 2015, published 2018)
Where two headings read alike, the source gives them in different places.

Assay: Pharmacokinetics of Compound 1 in combination with MK-3475 in subjects with various cancers
Assay type: in vivo, human
Procedure: The subjects were not limited to a specific cancers and study include subjects with various cancers. […] One treatment cycle consisted of 21 days. […] Additional subjects were enrolled in a cohort to achieve the minimum of 3 evaluable subjects if dropouts or dose interruptions or reductions occur that result in a subject being non-evaluable for DLTs. […] An additional safety cohort was opened at 100 mg BID in parallel to 300 mg BID being tested. This may also be limited to subjects with melanoma, NSCLC, or specific cancer types from among those included in Phase 1. The RP2D was selected from the evaluated safety expansions.
If a dose was missed by more than 4 hours, that dose was skipped and was resumed at the scheduled time.
Pharmacokinetic samples were obtained at the visits of Cycle 1 Day 1, Cycle 1 Day 8 and Cycle 2 Day 1. […] The exact date and time of the PK blood draws were recorded in the eCRF along with the date and time of the last dose of study drug and details of the last meal preceding the blood draw.
The planned PK time points were used for preliminary PK analyses.

[1] = subjects with dose reduction before C4D1, 50 mg BID, C1D8, mean ± SD

NS(=O)(=O)NCCNc1nonc1C(=NO)Nc1ccc(F)c(Br)c1 [Compound 1, 4-({2-[(aminosulfonyl)amino]ethyl}amino)-N-(3-bromo-4-fluorophenyl)-N′-hydroxy-1,2,5-oxadiazole-3-carboximidamide]
AUC(0-t) (human, plasma, oral, 100 mg, Diagnosis DLBCL, first dose, geometric mean, read-out: AUC0-t): 1.9 µM·h | Cmax (human, plasma, oral, 100 mg, Diagnosis DLBCL, first dose, mean ± SD): 732 ± 370 nM | tmax (human, plasma, oral, 100 mg, Diagnosis DLBCL, first dose, median, read-out: tmax): 3 h | Cmax (human, plasma, oral, 100 mg, Diagnosis GU, first dose, geometric mean): 878 nM | AUC(0-t) (human, plasma, oral, 100 mg, Diagnosis GU, first dose, geometric mean, read-out: AUC0-t): 2.71 µM·h | Cmax (human, plasma, oral, 100 mg, Diagnosis GU, first dose, mean ± SD): 986 ± 492 nM | AUC(0-t) (human, plasma, oral, 100 mg, Diagnosis GU, first dose, mean ± SD, read-out: AUC0-t): 2.96 ± 1.28 µM·h | AUC(0-t) (human, plasma, oral, 100 mg, Diagnosis MEL, first dose, geometric mean, read-out: AUC0-t): 2.37 µM·h | Cmax (human, plasma, oral, 100 mg, Diagnosis MEL, first dose, mean ± SD): 870 ± 347 nM | AUC(0-t) (human, plasma, oral, 100 mg, Diagnosis MEL, first dose, mean ± SD, read-out: AUC0-t): 2.48 ± 0.773 µM·h | Cmax (human, plasma, oral, 100 mg, Diagnosis NSCLC PD-L1 High, first dose, geometric mean): 878 nM | AUC(0-t) (human, plasma, oral, 100 mg, Diagnosis NSCLC PD-L1 High, first dose, geometric mean, read-out: AUC0-t): 2.62 µM·h | Cmax (human, plasma, oral, 100 mg, Diagnosis NSCLC PD-L1 High, first dose, mean ± SD): 1020 ± 573 nM | AUC(0-t) (human, plasma, oral, 100 mg, Diagnosis NSCLC PD-L1 High, first dose, mean ± SD, read-out: AUC0-t): 2.88 ± 1.3 µM·h | tmax (human, plasma, oral, 100 mg, Diagnosis NSCLC PD-L1 High, first dose, median, read-out: tmax): 1.5 h | Cmax (human, plasma, oral, 100 mg, Diagnosis NSCLC PD-L1 Low/NE, first dose, geometric mean): 857 nM | AUC(0-t) (human, plasma, oral, 100 mg, Diagnosis NSCLC PD-L1 Low/NE, first dose, geometric mean, read-out: AUC0-t): 2.66 µM·h | AUC(0-t) (human, plasma, oral, 100 mg, Diagnosis NSCLC PD-L1 Low/NE, first dose, mean ± SD, read-out: AUC0-t): 2.77 ± 0.839 µM·h | Cmax (human, plasma, oral, 100 mg, Diagnosis OC, first dose, geometric mean): 886 nM | AUC(0-t) (human, plasma, oral, 100 mg, Diagnosis OC, first dose, geometric mean, read-out: AUC0-t): 2.99 µM·h | Cmax (human, plasma, oral, 100 mg, Diagnosis OC, first dose, mean ± SD): 967 ± 405 nM | AUC(0-t) (human, plasma, oral, 100 mg, Diagnosis OC, first dose, mean ± SD, read-out: AUC0-t): 3.16 ± 1.1 µM·h | tmax (human, plasma, oral, 100 mg, Diagnosis RCC, first dose, individual values of 2 subjects, read-out: tmax): 3 h | Cmax (human, plasma, oral, 100 mg, Diagnosis SCCHN, first dose, geometric mean): 649 nM | AUC(0-t) (human, plasma, oral, 100 mg, Diagnosis SCCHN, first dose, geometric mean, read-out: AUC0-t): 2.06 µM·h | Cmax (human, plasma, oral, 100 mg, Diagnosis SCCHN, first dose, mean ± SD): 769 ± 439 nM | Cmax (human, plasma, oral, 100 mg, Diagnosis TNBC, first dose, geometric mean): 898 nM | AUC(0-t) (human, plasma, oral, 100 mg, Diagnosis TNBC, first dose, geometric mean, read-out: AUC0-t): 2.82 µM·h | Cmax (human, plasma, oral, 100 mg, Diagnosis TNBC, first dose, mean ± SD): 1030 ± 574 nM | AUC(0-t) (human, plasma, oral, 100 mg, Diagnosis TNBC, first dose, mean ± SD, read-out: AUC0-t): 3.08 ± 1.39 µM·h | AUC(0-t) (human, plasma, oral, 100 mg, by dose, 100 mg BID, steady state C1D8, geometric mean, read-out: AUC0-12 h (converted)): 3.57 µM·h | AUC(0-t) (human, plasma, oral, 100 mg, by dose, 100 mg BID, steady state C1D8, mean ± SD, read-out: AUC0-12 h (converted)): 3.82 ± 1.37 µM·h | AUC(0-t) (human, plasma, oral, 100 mg, by dose, 100 mg, first dose, mean ± SD, read-out: AUC0-t): 2.47 ± 0.861 µM·h | AUC(0-t) (human, plasma, oral, 300 mg, Cohort 6, 300 mg BID, steady state C1D8, geometric mean, read-out: AUC0-12 h (converted)): 11.3 µM·h | AUC(0-t) (human, plasma, oral, 300 mg, Cohort 6, 300 mg BID, steady state C1D8, mean ± SD, read-out: AUC0-12 h (converted)): 12.3 ± 6.09 µM·h | Cmax (human, plasma, oral, 300 mg, Cohort 6, 300 mg, first dose, geometric mean): 1790 nM | AUC(0-t) (human, plasma, oral, 300 mg, Cohort 6, 300 mg, first dose, geometric mean, read-out: AUC0-t): 6.92 µM·h | Cmax (human, plasma, oral, 300 mg, Cohort 6, 300 mg, first dose, mean ± SD): 2220 ± 1720 nM | AUC(0-t) (human, plasma, oral, 300 mg, Cohort 6, 300 mg, first dose, mean ± SD, read-out: AUC0-t): 7.47 ± 3.32 µM·h | AUC(0-t) (human, plasma, oral, 300 mg, Cohort 7, 300 mg BID, steady state C1D8, geometric mean, read-out: AUC0-12 h (converted)): 11.3 µM·h | Cmax (human, plasma, oral, 300 mg, Cohort 7, 300 mg BID, steady state C1D8, mean ± SD): 2750 ± 1220 nM | AUC(0-t) (human, plasma, oral, 300 mg, Cohort 7, 300 mg BID, steady state C1D8, mean ± SD, read-out: AUC0-12 h (converted)): 12.2 ± 5.92 µM·h | Cmax (human, plasma, oral, 300 mg, Cohort 7, 300 mg, first dose, geometric mean): 2170 nM | AUC(0-t) (human, plasma, oral, 300 mg, Cohort 7, 300 mg, first dose, geometric mean, read-out: AUC0-t): 6.88 µM·h | Cmax (human, plasma, oral, 300 mg, Cohort 7, 300 mg, first dose, mean ± SD): 2330 ± 925 nM | AUC(0-t) (human, plasma, oral, 300 mg, Cohort 7, 300 mg, first dose, mean ± SD, read-out: AUC0-t): 7.38 ± 2.86 µM·h | AUC(0-t) (human, plasma, oral, 300 mg, by dose, 300 mg BID, steady state C1D8, geometric mean, read-out: AUC0-12 h (converted)): 11.3 µM·h | Cmax (human, plasma, oral, 300 mg, by dose, 300 mg BID, steady state C1D8, mean ± SD): 2740 ± 1190 nM | AUC(0-t) (human, plasma, oral, 300 mg, by dose, 300 mg BID, steady state C1D8, mean ± SD, read-out: AUC0-12 h (converted)): 12.3 ± 5.81 µM·h | AUC(0-t) (human, plasma, oral, 300 mg, by dose, 300 mg, first dose, geometric mean, read-out: AUC0-t): 6.89 µM·h | AUC(0-t) (human, plasma, oral, 300 mg, by dose, 300 mg, first dose, mean ± SD, read-out: AUC0-t): 7.41 ± 2.95 µM·h | Cmax (human, plasma, oral, 300 mg, subjects with dose reduction before C4D1, 300 mg BID, C1D8, geometric mean): 3000 nM | AUC(0-t) (human, plasma, oral, 300 mg, subjects with dose reduction before C4D1, 300 mg BID, C1D8, geometric mean, read-out: AUC0-12 h (converted)): 13.3 µM·h | Cmax (human, plasma, oral, 300 mg, subjects with dose reduction before C4D1, 300 mg BID, C1D8, mean ± SD): 3180 ± 1280 nM | AUC(0-t) (human, plasma, oral, 300 mg, subjects with dose reduction before C4D1, 300 mg BID, C1D8, mean ± SD, read-out: AUC0-12 h (converted)): 14.6 ± 7.4 µM·h | dose proportionality of exposures (non-compartmental analysis): approximate dose-proportional exposures | AUC0-12 h (subjects with dose reduction before C4D1, 50 mg BID, C1D8, geometric mean): (2.29) μM * h | AUC0-12 h [1]: 2.41 ± 0.980 µM·h | CL/F [1]: 52.0 ± 17.1 L/h | tmax (subjects with dose reduction before C4D1, 50 mg BID, C1D8, median): 2.00 h | CL/F (subjects with dose reduction before C4D1, 300 mg BID, C1D8, mean ± SD): 55.4 ± 23.0 L/h | tmax (subjects with dose reduction before C4D1, 300 mg BID, C1D8, median): 2.00 h
